Measured values: US11918551B2, “Methods of treating seizure disorders and Prader-Willi syndrome” (Ovid Therapeutics, Inc., priority 2017, dated 2024)

Test: plasma pharmacokinetics (elimination half-life, dose proportionality of Cmax and AUC)
Conditions: in the dose range 5 mg-500 mg
Excerpt: “PK” refers to the pharmacokinetic profile. Cmax is defined as the highest plasma drug concentration estimated during an experiment (ng/ml). Tmax is defined as the time when Cmax is estimated (min). AUC0-∞ is the total area under the plasma drug concentration-time curve, from drug administration until the drug is eliminated (ng·hr/ml or μg·hr/ml). The area under the curve is governed by clearance. Clearance is defined as the volume of blood or plasma that is totally cleared of its content of drug per unit time (ml/min).

## N[C@H]1C[C@@H](C(=O)O)CC1=C(F)F
  AUCs dose proportionality: greater than proportional increase
